Experimental findings from US20230055441A1 (NONO INC., priority 2020, published 2023) are described below.

In series [1] the target is T1, PSD95PDZ2 (Homo sapiens, UniProt P78352). Nature of the series: direct ELISA; biotinylated peptide; unit printed "um". On the technique in general: In an ELISA, binding on a coated surface is turned into a signal by an enzyme label.
Target sequence in this assay (P78352 160-246): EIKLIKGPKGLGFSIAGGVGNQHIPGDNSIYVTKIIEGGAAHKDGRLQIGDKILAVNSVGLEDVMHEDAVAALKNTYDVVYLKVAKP
Series [2] concerns TNK-tissue plasminogen activator. Nature of the series: rat plasma with TNK.
Another series concerns tPA. Nature of the series: tPA in PBS buffer (no plasma).
Series [3] concerns TNK-tissue plasminogen activator. Nature of the series: human plasma with TNK.
Series [4] in a line: Pharmacokinetic analysis in rats by route (subcutaneous, pulmonary instillation, intramuscular, intravenous). The settings on record: rat; for Cmax / plasma concentration, pulmonary instillation / plasma exposure, pulmonary instillation / AUC / plasma exposure, subcutaneous / Cmax, subcutaneous: 25 mg/kg (Table 4); for plasma exposure, pulmonary instillation: versus intrapulmonary NA-1; for AUC / plasma exposure, subcutaneous / Cmax, subcutaneous: NA-1 versus IV NA-1, others versus subcutaneous NA-1.
Method: Rats were anaesthetized in the supine position (Isoflurane 1.5-%) and allowed to breath spontaneously in 0.5 L/min 02. The left femoral artery was cannulated for blood sampling.
Test agents were prepared at the stablish concentration in a total volume of vehicle. Pulmonary instillation was performed by intubation with a 14G catheter connected to a 1 cc syringe and the test agent will be delivered through the catheter. Subcutaneous (SQ or SC) injection was injected into the area of the left flank, no more than 2 ml of total volume per site.
Each dose was evaluated in 3 rats for each administration strategy. […] For the first experiment, evaluating two different administration routes (SQ and PI), blood samples were collected at 8 different timepoints: Pre and at 7 additional times (1, 2.5, 5, 10, 15, 30, 60 min) post dose (250 ul/sample). For the 24-hour PK curve experiment, blood samples were collected at 11 timepoints: Pre, 2.5, 5, 10, 15, 30, 60 min, 3 hr, 6 hr, 12 hr and 24 hr.
HPLC quantification: Plasma was separated from blood and stored at −80° C. until used. Each sample was precipitated by adding 1M HCl (10 ul/100 ul sample) at >80° C., centrifuged (12,000 rpm×15 min) and the precipitate collected. A 5 cm C—18 RP-HPLC column was equilibrated with 10% acetonitrile with 0.1% TFA at 40° C., the sample was injected and run in an Agilent 1260 Infinity Quaternary LC System. (30 min at 1.5 mL/min; gradient from 10% to 35% acetonitrile in 0.1% TFA; Absorbance detected at 220 nm). Standard curves for HPLC were generated from plasma samples spiked with known quantities of test agent.

Series [5] deals with T1, PSD95PDZ2. The series can be described thus: Competitive ELISA with biotinylated-NA-1 on coated PSD95PDZ2. It counts as binding. The method, then: Binding was evaluated with a competitive ELISA assay. A plate was coated with 1 ug/ml PSD95PDZ2 in 50 mM bicarbonate buffer overnight at 4C. The plate was blocked in 2% BSA in PBST (0.05%) for 2 h at room temperature. […] The wells were washed again, and then incubated with TMB solution for 10 min. The reaction was stopped with 100 ul H2SO4. Absorbance was determined at 450 nm with the synergy H1 reader.
Target sequence in this assay (P78352 160-246 limits assumed): as the sequence (P78352 160-246) above

The test system of another series is histamine. The series can be described thus: Histamine release in rat plasma (histamine ELISA).
A short description of series [6]: Plasma concentrations 15 minutes after subcutaneous dose in rats of the 3-pial vessel occlusion study. The series is classed as in vivo. The settings on record: rat. The method, then:
Unlike transient models of stroke in rats where much lower doses are required for neuroprotection, neuroprotection in 3 pial vessel occlusion models of stroke seems to require plasma concentrations of nerinetide at or above 2 ug/mL (or molar equivalent). […] Although the plasma levels continue to increase through about 3 hours then decrease, it is important to achieve rapid accumulation in the blood and brain for emergency indications like stroke. […] For pharmacokinetic sample analysis, calibration standard samples at concentrations of 0, 2.5, 5, 10, 15, 20 and 40 ug/mL of nerinetide were prepared by spiking 1 μL of the appropriate stock to 100 μL of plasma. […] Data is presented as mean±SD.

The nature of series [7]: Pharmacokinetics after subcutaneous injection in non-human primates. The series is classed as in vivo, cynomolgus macaques. The settings on record: for plasma concentrations: cynomolgus macaques. The text has this: All values are presented as mean±SD; Statistical significance when compared to nerinetide alone is indicated as * (one-way ANOVA with post-hoc turkey's correction, *P<0.01). (Cmax: maximum plasma concentrations based on the extrapolated time-zero value; t1/2: half-life at terminal phase; tmax: time to reach Cmax; AUC0-t: area under the concentration-time curve from 0 to the last measured value; AUC0-inf: extrapolated area under the concentration-time curve from 0 to infinity; Cl: total clearance). Data is presented as mean±SD of three-four animals per group. The (−) represent data not reported due to an extrapolation of the AUC0-inf greater than 20% and R^2 lower than 0.9.

Series [8] deals with T1, PSD95PDZ2. Nature of the series: direct ELISA; biotinylated peptide.
Target sequence in this assay (P78352 160-246): as above
The target of series [9] is T1, PSD95PDZ2. Nature of the series: competitive ELISA, PSD95PDZ2 coated, competitor biotinylated NA-1.
Target sequence in this assay (P78352 160-246 limits assumed): as the sequence (P78352 160-246) above
In the next series the test system is plasmin. Nature of the series: digested with plasmin.
The next series deals with TNK. Nature of the series: TNK in phosphate buffered saline alone.
Where [10] appears, read: listed as D-Tat-L-IESDV, 25 mg/kg.
The mark [11] stands for this setting: subcutaneous 25, 8.3, 2.8 mg/kg.
Setting [12] is: subcutaneous 25 mg/kg versus nerinetide IV infusion.

“Also recorded” adds a separate entry of the source. Square brackets hold non-standard residues; d marks the D form. Ends that are not written are not given here. Peptide text beside a SMILES is read from it. A value given as a limit tells only on which side of the number the result lay.

Method for histamine: Blood samples were collected at 11 timepoints: Pre, 2.5, 5, 10, 15, 30, 60 min, 3 hr, 6 hr, 12 hr and 24 hr. Histamine levels were quantified by using commercially available histamine ELISA assay kit (Histamine ELISA-H1531-K01, Eagle Bioscience). The plates were coated with the plasma samples (50 ul/well) incubated for 60 minutes at room temperature on an orbital shaker with medium frequency. Then 100 ul of enzyme conjugate was added to the wells and incubated for 20 minutes at room temperature. Samples were washed again, and then incubated for 25 minutes at room temperature with TMB solution. The reaction was stopped with 100 ul H2SO4. Absorbance was determined on an ELISA plate reader at 450 nm.
Blood samples were taken at pre-injection and at 0, 1, 2.5, 5, 10, 15, 30- and 60-minutes post dose and used for histamine levels quantification using commercially available kit.

The term EC50 denotes the concentration giving half of the maximal effect. High values mean weaker potency, low ones greater potency. As for D-Tat-L-NA-1 (Bio-D-Tat-L-NA1), the EC50 with PSD95PDZ2 [1] was found to be 139 nM.

Turning to “ygrkkrrqrrrKLSSIESDV ([dY]G[dR][dK][dK][dR][dR][dQ][dR][dR][dR]KLSSIESDV)”, the values for the not cleaved entry (in series [2]; with tPA; in series [3]) were “stable”, “no degradation” and “stable”, respectively.

With `CC[C@@H](C)[C@@H](NC(=O)[C@@H](CO)NC(=O)[C@@H](CO)NC(=O)[C@@H](CC(C)C)NC(=O)[C@@H](CCCCN)NC(=O)[C@@H](CCCNC(=N)N)NC(=O)[C@@H](CCCNC(=N)N)NC(=O)[C@@H](CCCNC(=N)N)NC(=O)[C@@H](CCC(N)=O)NC(=O)[C@@H](CCCNC(=N)N)NC(=O)[C@@H](CCCNC(=N)N)NC(=O)[C@@H](CCCCN)NC(=O)[C@@H](CCCCN)NC(=O)[C@@H](CCCNC(=N)N)NC(=O)CNC(=O)[C@H](N)Cc1ccc(O)cc1)C(=O)N[C@H](CCC(=O)O)C(=O)N[C@H](CO)C(=O)N[C@H](CC(=O)O)C(=O)N[C@@H](C(=O)O)C(C)C` [D-NA-1, ygrkkrrqrrrklssiesdv] (H-[dY]G[dR][dK][dK][dR][dR][dQ][dR][dR][dR][dK][dL][dS][dS][dI][dE][dS][dD][dV]-OH), in series [4], the “Cmax / plasma concentration, pulmonary instillation” value is “higher plasma concentration”; the “plasma exposure, pulmonary instillation” value is “greater plasma exposure”; the “AUC / plasma exposure, subcutaneous” value was “also increased Cmax and AUC relative to subcutaneous NA-1 but not to the same extent”; the “Cmax, subcutaneous” value is “also increased Cmax and AUC relative to subcutaneous NA-1 but not to the same extent”. The “EC50 compared among NA-1, D-Tat-L-2B9C and D-NA-1” value at PSD95PDZ2 [5] (FIG. 12) is on record as “about ten-fold lower”.

By IC50 is commonly meant the point on the concentration scale where inhibition reaches its midpoint. Consider `CC[C@H](C)[C@H](NC(=O)[C@@H](CO)NC(=O)[C@@H](CO)NC(=O)[C@@H](CC(C)C)NC(=O)[C@@H](CCCCN)NC(=O)[C@@H](CCCNC(=N)N)NC(=O)[C@@H](CCCNC(=N)N)NC(=O)[C@@H](CCCNC(=N)N)NC(=O)[C@@H](CCC(N)=O)NC(=O)[C@@H](CCCNC(=N)N)NC(=O)[C@@H](CCCNC(=N)N)NC(=O)[C@@H](CCCCN)NC(=O)[C@@H](CCCCN)NC(=O)[C@@H](CCCNC(=N)N)NC(=O)CNC(=O)[C@H](N)Cc1ccc(O)cc1)C(=O)N[C@@H](CCC(=O)O)C(=O)N[C@@H](CO)C(=O)N[C@@H](CC(=O)O)C(=O)N[C@H](C(=O)O)C(C)C` [NA-3, ygrkkrrqrrrklsslESDV] (H-[dY]G[dR][dK][dK][dR][dR][dQ][dR][dR][dR][dK][dL][dS][dS]IESDV-OH), for which the “plasma exposure, pulmonary instillation” value in series [4] is “greater plasma exposure”. For the same molecule, the “Cmax / plasma concentration, pulmonary instillation” value in [4] (25 mg/kg) is on record as “higher plasma concentration”; in series [4] (setting [10]), “higher CMax than for NA-1 or D-Tat-L-2B9C”. Further, the “dose dependence of AUC, subcutaneous” value in series [4] (setting [11]) is “dose-dependent increasing linearly with dose”. Also, in series [4] (setting [11]), the “dose dependence of Cmax, subcutaneous” value is “dose-dependent increasing linearly with dose”. In addition, the “AUC / plasma exposure, subcutaneous” value is “greater plasma exposure relative to SQ NA-1” in series [4] (25 mg/kg); “increased Cmax and AUC compared with subcutaneous NA-1” in series [4] (setting [10]). For the same molecule, the “Cmax, subcutaneous” value in [4] (25 mg/kg) is “higher plasma concentration”; in series [4] (setting [10]) it was “increased Cmax and AUC compared with subcutaneous NA-1”. For the same molecule, the histamine release entry in the series on histamine (25 mg/kg SQ) is “resulted in histamine release but still much less than 7.6 mg/kg IV”; in the series with histamine (subcutaneous 2.8 mg/kg), “Lack of significant histamine release”; in the series with histamine (subcutaneous 2.8 mg/kg, listed as D-Tat-L-IESDV), “did not result in significant histamine release”; in the series with histamine (subcutaneous 8.3 mg/kg) it was “Lack of significant histamine release”; in the series with histamine (subcutaneous 8.3 mg/kg, listed as D-Tat-L-IESDV) it was “did not result in significant histamine release”. Besides, the “dose proportionality between treatment dose and Cmax” value in series [6] (single subcutaneous administration 25, 7.6, 2.5 mg/kg) was “dose proportionality”. The stability in plasma entry in [6] (subcutaneous, compared to nerinetide) is “higher stability in plasma”. Moreover, the “plasma concentration at 15 min post-dose” value in [6] (subcutaneous, compared to nerinetide at the same dose) was “higher concentration at 15 min post-dose”. The plasma concentrations entry in [7] (7.6 mg/Kg subcutaneous) and in series [7] (25 mg/kg subcutaneous) was “able to achieve plasma concentrations higher than those demonstrated to be effective in humans” each time. Also, the AUC result in series [7] (setting [12]) was “greater Cmax and AUC than nerinetide IV infusion”. The Cmax result in series [7] (setting [12]) is “greater Cmax and AUC than nerinetide IV infusion”. For the same molecule, on PSD95PDZ2 [5], the IC50 was under 5000 nM.

With D-NA-1 NA1 (Bio-D-NA1), the EC50 with PSD95PDZ2 [8] was determined as 1380 nM.

The molecule D-NA-1 (peptide) displayed a fold difference of EC50 against NA-1 and D-Tat-L-2B9C with PSD95PDZ2 [9] of 10 fold.

Consider YGRKKRRQRRRKLSSIESDV, for which the results for the not cleaved entry with tPA and with TNK were “no degradation” and “not directly cleaved”, respectively. Besides, the fragment found entry in the series on plasmin is “RRQRRRKLSSIESDV; also recorded: RQRRRKLSSIESDV; also recorded: QRRRKLSSIESDV; also recorded: RRKLSSIESDV; also recorded: RKLSSIESDV; also recorded: KLSSIESDV; also recorded: LSSIESDV”.
